These results are taken from ChEMBL document CHEMBL4699480 (J Med Chem, 2020).

The nature of assay [1]: Inhibition of Escherichia coli WecA incubated for 2 hrs using UDP-Glucosamine-C6-FITC substrate by reversed-phase HPLC analysis. Set-up: species or system Escherichia coli BL21.
For assay [2], the target named is T1, UDP-N-acetylglucosamine--dolichyl-phosphate N-acetylglucosaminephosphotransferase (Homo sapiens, UniProt Q9H3H5).
T1 sequence (Q9H3H5 whole entry): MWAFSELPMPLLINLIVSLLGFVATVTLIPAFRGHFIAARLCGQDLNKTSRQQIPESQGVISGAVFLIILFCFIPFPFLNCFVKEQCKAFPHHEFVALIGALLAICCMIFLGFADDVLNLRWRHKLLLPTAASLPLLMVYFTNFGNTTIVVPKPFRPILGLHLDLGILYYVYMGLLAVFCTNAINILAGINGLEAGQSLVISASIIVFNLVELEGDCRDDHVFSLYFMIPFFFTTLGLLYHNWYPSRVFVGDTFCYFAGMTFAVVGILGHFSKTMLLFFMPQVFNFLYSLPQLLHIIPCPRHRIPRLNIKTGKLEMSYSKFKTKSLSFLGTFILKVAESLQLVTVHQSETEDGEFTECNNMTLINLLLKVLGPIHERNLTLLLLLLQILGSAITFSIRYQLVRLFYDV
The assay can be described thus: Inhibition of human DPAGT1 expressed in HEK293 (Expi293) cells incubated for 2 hrs using UDP-GlcN-Cg-FITC and alpha-dihydroundecap-renyl phosphate by reversed-phase HPLC analysis. The assay is classed as cell-based.

A further assay deals with KB. The assay is described as follows: Cytotoxicity in human KB cells assessed as reduction in cell viability incubated for 72 hrs by MTT assay. The assay is classed as functional, cell-based.
Assay [3] has as its system CAPAN-1. The assay is described as follows: Cytotoxicity in human CAPAN-1 cells assessed as reduction in cell viability incubated for 72 hrs by MTT assay. The assay is classed as functional, cell-based. The conditions noted are these: CAPAN-1, 72 h. (Tetrazolium dyes change colour on reduction, which living cells bring about.)
For the next assay, the system named is PANC-1. The assay is described as follows: Cytotoxicity in human PANC-1 cells assessed as reduction in cell viability incubated for 72 hrs by MTT assay. The assay is classed as functional, cell-based. The conditions noted are these: PANC-1, 72 h.
Assay [4] in a line: Inhibition of cell migration in human PD002 cells assessed as wound healing rate at 0.2 uM incubated for 24 hrs by wound healing assay (reference value: 63%). Set-up: scale not given: the % may be the effect or the level left. The assay is classed as functional.
The target of assay [5] is T2, UDP-N-acetylglucosamine--dolichyl-phosphate N-acetylglucosaminephosphotransferase (Homo sapiens) (UniProt Q9H3H5).
T2 sequence (whole entry): T1 sequence (Q9H3H5 whole entry)
The assay is described as follows: Inhibition of DPAGT1 in human PANC-1 cells assessed as reduction in snail protein expression incubated for 24 hrs by Western blot analysis. The assay is classed as cell-based. (Immunoblotting shows a protein as a band on a membrane.)

Assay [6] can be described thus: Synergistic cytotoxicity in human PD002 cells assessed as FIC at 0.2 uM incubated for 72 hrs in presence of 0.020 uM paclitaxel by IncuCyte live cell analysis imaging system based assay. The format is functional.
A short description of assay [7]: Synergistic cytotoxicity in human PD002 cells assessed as FIC at 2 uM incubated for 72 hrs in presence of 0.31 uM paclitaxel by IncuCyte live cell analysis imaging system based assay. The format is functional.
For assay [8], the system named is CAPAN-1. The assay can be described thus: Inhibition of DPAGT1 protein expression in human CAPAN-1 cells at 0.2 uM incubated for 24 hrs by Western blot analysis. The assay is classed as functional, cell-based.

The term IC50 denotes the concentration at which inhibition is half-maximal.

Structures are written as SMILES. Active and inactive are the calls of the source. No cut-off for these calls is given here.

Turning to `CO[C@H]1[C@@H](O)[C@H](n2ccc(=O)[nH]c2=O)O[C@@H]1[C@@H](O[C@H]1OC(C(=O)NCc2ccc(N3CCC(Oc4ccc(OC(F)(F)F)cc4)CC3)cc2)=C[C@H](O)[C@@H]1O)C(N)=O`, the 50% inhibitory concentration (IC50) was determined as 0.1 µM in [1]; 0.2 µM in [2]; 35 µM in the assay on KB; 30 µM in the assay on CAPAN-1 [3]; 35 µM with PANC-1. Further, in assay [4], the Activity came to 20%. Moreover, the inhibition result (in [5]; with CAPAN-1 [8]) was “Active” each time. Besides, the FIC is on record as 0.021 in assay [6] and 0.26 in assay [7].
